Reference: US10202371B2, “Oxazolidin-2-one-pyrimidine derivatives and the use thereof as phosphatidylinositol-3-kinase inhibitors” (Novartis AG, priority 2012, dated 2019)

How the values were obtained:
human PI3Kβ = human PI3Kβ (Homo sapiens (Human), UniProt P42338); experiment: Biochemical assay PI3Kbeta (KinaseGlo luminescence); settings: 1 μM ATP, read-out: PI3Kb/IC50
Description: Cancer Ther. accepted). […] (L-alpha-phosphatidylinositol (PI), Liver, Bovine) were obtained from Avanti Polar Lipid (Cat. […] (Avanti, Cat. No. 840046X) or L-α-phosphatidylinositol (PI) was obtained from Avanti Polar Lipid (Cat. […] Luminescence is a well established readout to determine ATP concentrations and can thus be used to follow the activity of many kinases regardless of their substrate. The Kinase Glo Luminescent Kinase Assay (Promega, Madison/WI, USA) is a homogeneous HTS method of measuring kinase activity by quantifying the amount of ATP remaining in solution following a kinase reaction. 50 nL of compound dilutions were dispensed onto black 384-well low volume Non Binding Styrene (NBS) plates (Costar Cat. No. […] L-α-phosphatidylinositol (PI), provided as 10 mg/ml solution in methanol, was transferred into a glass tube and dried under nitrogen beam. […] NVP-BGT226 was used as a reference compound and included in all assay plates in the form of 16 dilution points in duplicate. […] All fits were performed with the program XLfit4 (ID Business Solutions, Guildford, UK).

human PI3Kδ = human PI3Kδ (Homo sapiens (Human), UniProt O00329); experiment: Biochemical assay PI3Kdelta (Adapta TR-FRET); settings: read-out: PI3Kd/IC50
Description: Catalytically active human PI3Kα, PI3Kβ, PI3Kδ, and mTOR were cloned, expressed and purtified as described ([…], Stauffer F, Brueggen J, Furet […], de Pover A, Schoemaker K, Fabbro D, Gabriel D, Simonen M, Murphy […], Garcia-Echeverria C (2008), Mol Cancer Ther. 7:1851-63 and […], Huh […], Schoemaker K, De Pover […], Garcia-Echeverria C, Voliva CF (2011), Mol. Cancer Ther. accepted). The TR-FRET AdaptaTM Universal Kinase Assay Kit was purchased from Invitrogen Corporation (Carlsbad/CA, USA) (Cat. No. PV5099). The kit contains the following reagents: Adapta Eu-anti-ADP Antibody (Europium labeled anti-ADP antibody in HEPES buffered saline, Cat. No. PV5097), Alexa Fluor® 647-labeled ADP tracer (Alexa Fluor® 647-labeled ADP tracer in HEPES buffered saline, Cat. No. PV5098), proprietary TR-FRET dilution buffer pH 7.5 (Cat. No. PV3574). PIK3CD substrate Phosphatidylinositol was obtained from Invitrogen (vesicules consisting of 2 mM PI in 50 mM HEPES pH7.5; Cat. No. PV5371). […] TR-FRET assays for protein kinases use a long-lifetime lanthanide Terbium or Europium chelates as the donor species which overcome interference from compound autofluorescence or light scatter from precipitated compounds, by introducing a delay after excitation by a flashlamp excitation source. Results are often expressed as a ratio of the intensities of the acceptor and donor fluorophores. The ratiometric nature of such a value corrects for differences in assay volumes between wells, as well as corrects for quenching effects due to colored compounds. The AdaptaTM assay can be divided into two phases: a kinase reaction phase and an ADP detection phase. In the kinase reaction phase, all kinase reaction components are added to the well and the reaction is allowed to incubate for a set period of time specific for each kinase. After the reaction, a detection solution of Eu-labeled anti-ADP antibody, Alexa Fluor® 647-labeled ADP tracer, and EDTA (to stop the kinase reaction) are added to the assay well. ADP formed by the kinase reaction will displace the Alexa Fluor® 647-labeled ADP tracer from the antibody, resulting in a decrease in TR-FRET signal. In the presence of an inhibitor, the amount of ADP formed by the kinase reaction is reduced, and the resulting intact antibody-tracer interaction maintains a high TR-FRET signal. In the AdaptaTM assay, the donor (Europium-anti-ADP antibody) is excited at 340 nm and will transfer its energy to the acceptor (Alexa Fluor® 647-labeled ADP tracer). The emission from the Alexa Fluor® 647 can be monitored with a filter centered at 665 nm because it is located between the emission peaks of the donor, which is measured at 615/620 nm. […] Reactions were stopped with 5 μL of a mixture of EDTA containing the Eu-labeled anti-ADP antibody and the Alexa Fluor® 647-labeled ADP tracer in TR-FRET dilution buffer (proprietary to IVG). […] Data are analyzed using Excel fit software or Graphpad Prism. EC50 values were derived by fitting a sigmoidal dose-response curve to a plot of assay readout over inhibitor concentration. All fits were performed with the program XLfit4 (ID Business Solutions, Guildford, UK). […] All fits were performed with the program XLfit4 (ID Business Solutions, Guildford, UK).

Sequence of human PI3Kβ (P42338 2-1070): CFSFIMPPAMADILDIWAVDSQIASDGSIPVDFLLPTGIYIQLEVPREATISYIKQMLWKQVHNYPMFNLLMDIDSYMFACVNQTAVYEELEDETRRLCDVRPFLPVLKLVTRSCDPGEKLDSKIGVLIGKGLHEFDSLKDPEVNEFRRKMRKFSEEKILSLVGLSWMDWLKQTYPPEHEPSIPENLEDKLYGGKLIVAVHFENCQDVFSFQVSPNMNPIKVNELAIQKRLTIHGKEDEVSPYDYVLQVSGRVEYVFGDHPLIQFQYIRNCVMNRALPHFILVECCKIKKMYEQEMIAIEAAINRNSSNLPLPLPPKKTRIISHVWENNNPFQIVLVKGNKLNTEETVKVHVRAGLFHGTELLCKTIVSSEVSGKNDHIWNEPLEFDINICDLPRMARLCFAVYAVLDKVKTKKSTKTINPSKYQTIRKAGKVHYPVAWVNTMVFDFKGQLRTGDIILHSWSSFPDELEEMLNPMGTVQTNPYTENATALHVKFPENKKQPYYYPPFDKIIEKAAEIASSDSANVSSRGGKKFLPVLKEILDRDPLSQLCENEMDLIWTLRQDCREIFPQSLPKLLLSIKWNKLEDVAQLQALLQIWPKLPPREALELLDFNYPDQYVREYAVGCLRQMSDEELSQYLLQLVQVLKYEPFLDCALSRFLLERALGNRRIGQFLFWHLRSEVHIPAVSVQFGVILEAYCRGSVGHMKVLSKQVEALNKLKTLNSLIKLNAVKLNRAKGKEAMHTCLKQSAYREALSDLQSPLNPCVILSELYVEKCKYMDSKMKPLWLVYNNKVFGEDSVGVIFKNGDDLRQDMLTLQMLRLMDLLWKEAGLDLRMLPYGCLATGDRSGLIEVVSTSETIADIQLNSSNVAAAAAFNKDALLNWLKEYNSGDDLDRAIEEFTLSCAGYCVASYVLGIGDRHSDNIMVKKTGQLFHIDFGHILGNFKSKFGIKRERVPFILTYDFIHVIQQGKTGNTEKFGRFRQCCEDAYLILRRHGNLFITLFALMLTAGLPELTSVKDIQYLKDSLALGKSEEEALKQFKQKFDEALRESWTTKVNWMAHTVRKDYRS
Sequence of human PI3Kδ (O00329 2-1044): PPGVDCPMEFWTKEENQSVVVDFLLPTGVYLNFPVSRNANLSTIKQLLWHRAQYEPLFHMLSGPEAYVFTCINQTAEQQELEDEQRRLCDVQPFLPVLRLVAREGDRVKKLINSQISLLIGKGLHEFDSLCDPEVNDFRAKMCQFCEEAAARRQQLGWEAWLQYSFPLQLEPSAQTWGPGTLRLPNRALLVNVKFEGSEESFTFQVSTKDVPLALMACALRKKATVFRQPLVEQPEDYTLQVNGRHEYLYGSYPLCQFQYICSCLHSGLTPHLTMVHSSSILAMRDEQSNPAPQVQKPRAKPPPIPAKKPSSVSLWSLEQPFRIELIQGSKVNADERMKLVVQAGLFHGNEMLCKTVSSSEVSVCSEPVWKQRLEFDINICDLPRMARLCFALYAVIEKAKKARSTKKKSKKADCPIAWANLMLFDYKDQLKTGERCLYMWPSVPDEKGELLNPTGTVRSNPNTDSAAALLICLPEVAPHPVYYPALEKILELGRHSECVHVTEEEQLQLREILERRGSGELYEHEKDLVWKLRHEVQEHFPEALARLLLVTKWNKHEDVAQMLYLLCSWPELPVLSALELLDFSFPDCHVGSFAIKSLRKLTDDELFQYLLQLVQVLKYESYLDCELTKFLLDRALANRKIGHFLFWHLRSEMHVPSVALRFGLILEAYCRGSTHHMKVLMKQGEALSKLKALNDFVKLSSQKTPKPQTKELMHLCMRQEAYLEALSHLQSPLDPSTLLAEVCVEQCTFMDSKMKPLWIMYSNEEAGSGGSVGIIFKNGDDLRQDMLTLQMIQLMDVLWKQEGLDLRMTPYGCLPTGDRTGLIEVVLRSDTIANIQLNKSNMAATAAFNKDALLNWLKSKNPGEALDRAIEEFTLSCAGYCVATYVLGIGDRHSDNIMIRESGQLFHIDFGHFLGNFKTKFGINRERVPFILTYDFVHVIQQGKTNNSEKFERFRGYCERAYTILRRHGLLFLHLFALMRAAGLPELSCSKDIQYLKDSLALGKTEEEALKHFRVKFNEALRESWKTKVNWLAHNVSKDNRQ

Structure (SMILES)	IC50 (human PI3Kβ) [nM]	IC50 (human PI3Kδ) [nM]
C[C@H]1[C@H](c2nccs2)OC(=O)N1c1cc(-c2cnc(N)nc2C(F)(F)F)nc(N2CCOCC2)n1 [Example 1, (4S,5R)-3-(2′-Amino-2-morpholin-4-yl-4′-trifluoromethyl-[4,5′]bipyrimidinyl-6-yl)-4-methyl-5-thiazol-2-yl-oxazolidin-2-one]	9	
CC[C@H]1[C@H](c2nccs2)OC(=O)N1c1cc(-c2cnc(N)nc2C(F)(F)F)nc(N2CCOCC2)n1 [Example 7]		41
CC1C(c2cccnc2)OC(=O)N1c1cc(-c2cnc(N)nc2C(F)(F)F)nc(N2CCOCC2)n1 (centres unmarked) [Example 9]		10
C[C@H]1[C@@H](c2nccs2)OC(=O)N1c1cc(-c2cnc(N)nc2C(F)(F)F)nc(N2CCOCC2)n1 [Example 11]	10	
CCC1C(c2cccnc2)OC(=O)N1c1cc(-c2cnc(N)nc2C(F)(F)F)nc(N2CCOCC2)n1 (centres unmarked) [Example 8]	67	
C[C@H]1[C@H](c2ccccc2)OC(=O)N1c1cc(-c2cnc(N)nc2C(F)(F)F)nc(N2CCOCC2)n1 [Example 5]		147
CC[C@H]1[C@H](c2ccc(OC)cc2)OC(=O)N1c1cc(-c2cnc(N)nc2C(F)(F)F)nc(N2CCOCC2)n1 (relative stereo) [Example 2, (4S*,5S*)-3-(2′-amino-2-morpholino-4′-(trifluoromethyl)-[4,5′-bipyrimidin]-6-yl)-4-ethyl-5-(4-methoxyphenyl)oxazolidin-2-one]	96	
COc1ccc([C@@H]2OC(=O)N(c3cc(-c4cnc(N)nc4C(F)(F)F)nc(N4CCOCC4)n3)[C@H]2CO)cc1 [Example 3, (4S,5S)-3-(2′-Amino-2-morpholino-4′-(trifluoromethyl)-[4,5′-bipyrimidin]-6-yl)-4-(hydroxymethyl)-5-(4-methoxyphenyl)oxazolidin-2-one]	7	4
COCCOc1ccc([C@@H]2OC(=O)N(c3cc(-c4cnc(N)nc4C(F)(F)F)nc(N4CCOCC4)n3)[C@H]2CO)cc1 [Example 12]		4
Nc1ncc(-c2cc(N3C(=O)O[C@@H](c4ccc(OCCO)cc4)[C@@H]3CO)nc(N3CCOCC3)n2)c(C(F)(F)F)n1 [Example 13]	11	3
Nc1ncc(-c2cc(N3C(=O)O[C@@H](c4ccccc4)[C@@H]3CO)nc(N3CCOCC3)n2)c(C(F)(F)F)n1 [Example 10]	5	31
